Measured values from paper PMC12168975 (Drug Design, Development and Therapy, 2025).
Structures can show the parent of a compound that is named as a salt. Where two headings read alike, the source gives them in different places.

Tests used:
[1] = poor solubility and permeability; cited from earlier work
[2] = Stability of simulated plasma; format: physicochemical, rat; conditions: simulated plasma samples; freeze-thaw cycles, room temperature storage and autosampler storage; found to be stable
[3] = Pharmacokinetic drug-drug interaction study of BBR, TOFA and FIGA in rats; format: in vivo, Sprague-Dawley rats
[4] = cited from earlier work
[5] = cited from earlier work; remark: listed apart in the source
[6] = FIGA co-administered with itraconazole
[7] = FIGA co-administered with rifampin
[8] = FIGA combined with berberine hydrochloride compared to FIGA alone
[9] = TOFA combined with BBR compared to TOFA alone

Structure (SMILES)	Biopharmaceutics Classification System class [1]	relative errors (RE %) of stability assessment [2]	effect of concomitant TOFA and FIGA on the pharmacokinetic parameters of BBR ([3]; BBR with vs without TOFA or FIGA)	oral bioavailability ([4]; ref 20)	oral bioavailability ([4]; ref 35)	increase of Cmax [5, 6]	increase of bioavailability [5, 6]	reduction of Cmax [5, 7]	reduction of bioavailability [5, 7]	decrease in CL [3, 8]	decrease in Tmax [3, 8]	increase in AUC(0-t) [3, 8]	increase in Cmax [3, 8]	decrease in AUC(0-t) [3, 9]	increase in CL [3, 9]	increase in time to peak concentration [3, 9]
COc1ccc2cc3[n+](cc2c1OC)CCc1cc2c(cc1-3)OCO2 [BBR, berberine hydrochloride]	Class IV	less than 15.0%	no significant differences	5%	lower than 5%											
O=C(Nc1nc2cccc(-c3ccc(CN4CCS(=O)(=O)CC4)cc3)n2n1)C1CC1 [FIGA, Filgotinib]		less than 15.0%				64%	45%	26%	27%	1.64 fold	2.09 fold	1.67 fold	2.26 fold			
C[C@@H]1CCN(C(=O)CC#N)C[C@@H]1N(C)c1ncnc2[nH]ccc12 [TOFA, Tofacitinib]		less than 15.0%												1.76 fold	1.63 fold	2.49 fold
